According to the supplement of paper PMC9013687:

How the values were obtained:
Danio rerio embryo [1] = conditions: exposure time: 4 dpf
Experimental: (§1)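 Zebrafish embryos (UFZ-OBI strain) were exposed from 2 hpf for 48 h (2 dpf) or 96 h (4 dpf) at 28 °C; spontaneous tail coiling was scored at 25 hpf. Morphological features from automated image analysis (FishInspector), heart rate and locomotor response were fitted with drc models. Quantal endpoints were dichotomised at 2.5 SD from controls and fitted with a log-logistic model; heart rate, pigmentation and STC were normalised to the replicate control mean. Betamethasone was tested as betamethasone dipropionate, diflorasone as diflorasone diacetate.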

Danio rerio embryo [2] = test: EC10 Eye size_Decrease; higher = less potent
Experimental: as §1

Danio rerio embryo [3] = system: Danio rerio embryo
Experimental: as §1

Danio rerio embryo [4] = test: EC10 Head size_Decrease; higher = less potent
Experimental: as §1

Danio rerio embryo [5] = test: EC20 STC decrease; higher = less potent; conditions: exposure time: 25 h
Experimental: as §1

Danio rerio embryo [6] = test: EC50 Head trunk angle_Decrease; conditions: exposure time: 2 dpf
Experimental: as §1

Danio rerio embryo [7] = test: EC10 Head trunk angle_Decrease; higher = less potent; conditions: exposure time: 2 dpf
Experimental: as §1

Danio rerio embryo [8] = test: EC50 Eye size_Decrease
Experimental: as §1

Danio rerio embryo [9] = test: EC20 Lack of SB; higher = less potent; conditions: exposure time: 4 dpf
Experimental: as §1

Danio rerio embryo [10] = test: EC20 Pigmentation decrease; higher = less potent
Experimental: as §1

Danio rerio embryo [11] = test: EC10 Pigmentation decrease; higher = less potent
Experimental: as §1

Danio rerio embryo [12] = test: EC10 Lack of SB; higher = less potent; conditions: exposure time: 4 dpf
Experimental: as §1

Danio rerio embryo [13] = test: EC10 STC decrease; higher = less potent; conditions: exposure time: 25 h
Experimental: as §1

Danio rerio embryo [14] = test: EC50 Head size_Decrease
Experimental: as §1

Danio rerio embryo [15] = test: EC20 Eye size_Decrease; higher = less potent
Experimental: as §1

Danio rerio embryo [16] = test: EC20 Heart rate; higher = less potent
Experimental: as §1

Danio rerio embryo [17] = test: EC20 Head size_Decrease; higher = less potent
Experimental: as §1

Danio rerio embryo [18] = system: Danio rerio embryo; remark: listed apart in the source
Experimental: as §1

Danio rerio embryo [19] = test: EC10 Heart rate; higher = less potent
Experimental: as §1

Danio rerio embryo [20] = test: EC20 Head trunk angle_Decrease; higher = less potent; conditions: exposure time: 2 dpf
Experimental: as §1

Danio rerio embryo [21] = test: EC10 LMR ligth decrease; higher = less potent; conditions: exposure time: 4 dpf
Experimental: as §1

Danio rerio embryo [22] = test: EC20 LMR ligth decrease; higher = less potent; conditions: exposure time: 4 dpf
Experimental: as §1

Danio rerio embryo [23] = test: EC10 Otolith; higher = less potent; conditions: exposure time: 2 dpf
Experimental: as §1

Danio rerio embryo [24] = test: EC20 Otolith; higher = less potent; conditions: exposure time: 2 dpf
Experimental: as §1

Danio rerio embryo [25] = test: EC50 Mandibular arch distance_Decrease; conditions: exposure time: 4 dpf
Experimental: as §1

Danio rerio embryo [26] = test: EC10 Mandibular arch distance_Decrease; higher = less potent; conditions: exposure time: 4 dpf
Experimental: as §1

Danio rerio embryo [27] = test: EC10 Head-trunk angle_Decrease; higher = less potent; conditions: exposure time: 2 dpf
Experimental: as §1

Danio rerio embryo [28] = test: EC20 Mandibular arch distance_Decrease; higher = less potent; conditions: exposure time: 4 dpf
Experimental: as §1

Danio rerio embryo [29] = test: EC10 Pigmentation increase; higher = less potent; conditions: exposure time: 4 dpf
Experimental: as §1

Danio rerio embryo [30] = test: EC10 LMR ligth increase; higher = less potent; conditions: exposure time: 4 dpf
Experimental: as §1

Danio rerio embryo [31] = test: EC20 Pigmentation increase; higher = less potent; conditions: exposure time: 4 dpf
Experimental: as §1

Danio rerio embryo [32] = test: EC20 LMR ligth increase; higher = less potent; conditions: exposure time: 4 dpf
Experimental: as §1

Row | Compound | EC50 Lack of SB (Danio rerio embryo [1]) [µM] | EC10 Eye size Decrease (Danio rerio embryo [2]; exposure time: 2 dpf) [µM] | EC10 Eye size Decrease (Danio rerio embryo [2]; exposure time: 4 dpf) [µM] | EC10 Head size Decrease (Danio rerio embryo [4]; exposure time: 2 dpf) [µM] | EC20 STC decrease (Danio rerio embryo [5]) [µM] | EC50 Head trunk angle Decrease (Danio rerio embryo [6]) [µM] | EC10 Head trunk angle Decrease (Danio rerio embryo [7]) [µM] | EC50 Eye size Decrease (Danio rerio embryo [8]; exposure time: 2 dpf) [µM] | EC50 Eye size Decrease (Danio rerio embryo [8]; exposure time: 4 dpf) [µM] | EC20 Lack of SB (Danio rerio embryo [9]) [µM] | EC10 Lack of SB (Danio rerio embryo [12]) [µM] | EC10 STC decrease (Danio rerio embryo [13]) [µM] | EC50 Head size Decrease (Danio rerio embryo [14]; exposure time: 2 dpf) [µM] | EC20 Eye size Decrease (Danio rerio embryo [15]; exposure time: 2 dpf) [µM] | EC20 Eye size Decrease (Danio rerio embryo [15]; exposure time: 4 dpf) [µM] | EC20 Heart rate (Danio rerio embryo [16]; exposure time: 2 dpf) [µM] | EC20 Heart rate (Danio rerio embryo [16]; exposure time: 4 dpf) [µM] | EC20 Head size Decrease (Danio rerio embryo [17]; exposure time: 2 dpf) [µM] | EC50 Heart rate (Danio rerio embryo [18]; exposure time: 4 dpf) [µM] | EC10 Heart rate (Danio rerio embryo [19]; exposure time: 4 dpf) [µM] | also measured
1 | CCOC(=O)N1CCC(=C2c3ccc(Cl)cc3CCc3cccnc32)CC1 [Loratadine] | 0.282 | 5.86 | 5.5 | 2.55 | 4.66 | 7.05 | 4.17 | 8.45 | 6.82 | 0.202 | 0.167 | 3.8 | 12.7 | 6.71 | 5.96 | 2.72 | 2.18 | 4.61 | 7.03 | 1.1 | EC50 Pigmentation decrease (Danio rerio embryo [3]; exposure time: 4 dpf): 9.57 µM; EC10 Head size Decrease (Danio rerio embryo [4]; exposure time: 4 dpf): 6.85 µM; EC20 Pigmentation decrease (Danio rerio embryo [10]; exposure time: 4 dpf): 8.62 µM; EC10 Pigmentation decrease (Danio rerio embryo [11]; exposure time: 4 dpf): 8.11 µM; EC50 Head size Decrease (Danio rerio embryo [14]; exposure time: 4 dpf): 14.1 µM; EC20 Head size Decrease (Danio rerio embryo [17]; exposure time: 4 dpf): 8.95 µM; EC50 Heart rate (Danio rerio embryo [18]; exposure time: 2 dpf): 14.8 µM; EC10 Heart rate (Danio rerio embryo [19]; exposure time: 2 dpf): 1.01 µM; EC20 Head trunk angle Decrease (Danio rerio embryo [20]): 5.06 µM
2 | CN(Cc1cnc2nc(N)nc(N)c2n1)c1ccc(C(=O)N[C@@H](CCC(=O)O)C(=O)O)cc1 [Methotrexate] | 108 | – | 96.2 | – | – | 252 | 148 | – | 162 | 91 | 82.2 | – | – | – | 116 | – | – | – | – | – | EC10 LMR ligth decrease (Danio rerio embryo [21]): 32.5 µM; EC20 Pigmentation decrease (Danio rerio embryo [10]; exposure time: 2 dpf): 235 µM; EC20 LMR ligth decrease (Danio rerio embryo [22]): 53.8 µM; EC10 Pigmentation decrease (Danio rerio embryo [11]; exposure time: 2 dpf): 185 µM; EC20 Head trunk angle Decrease (Danio rerio embryo [20]): 180 µM
3 | CCO/N=C(\CC)C1=C(O)CC(c2c(C)cc(C)cc2C)CC1=O (stereo unspecified) [Tralkoxydim] | 63.2 | 103 | 89.7 | 74.7 | 142 | 120 | 73.6 | 164 | 104 | 51.2 | 45.3 | 127 | 176 | 122 | 94.7 | – | 49.9 | 103 | 56.3 | 46.5 | EC10 Otolith (Danio rerio embryo [23]): 126 µM; EC20 Otolith (Danio rerio embryo [24]): 160 µM; EC20 Head trunk angle Decrease (Danio rerio embryo [20]): 88 µM
4 | C[Si](Cn1cncn1)(c1ccc(F)cc1)c1ccc(F)cc1 [Flusilazole] | 2.78 | 21.5 | 4.51 | 28.1 | 4.11 | – | – | 22.3 | 5.51 | 1.99 | 1.64 | 2.72 | 30.1 | 21.8 | 4.86 | 26.2 | 7.13 | 28.8 | – | 4.6 | EC50 Pigmentation decrease (Danio rerio embryo [3]; exposure time: 4 dpf): 22.2 µM; EC50 Mandibular arch distance Decrease (Danio rerio embryo [25]): 11.4 µM; EC20 Pigmentation decrease (Danio rerio embryo [10]; exposure time: 4 dpf): 7.16 µM; EC10 Mandibular arch distance Decrease (Danio rerio embryo [26]): 6.12 µM; EC10 Pigmentation decrease (Danio rerio embryo [11]; exposure time: 4 dpf): 3.38 µM; EC10 Head-trunk angle Decrease (Danio rerio embryo [27]): 4.35 µM; EC10 Heart rate (Danio rerio embryo [19]; exposure time: 2 dpf): 16 µM; EC20 Mandibular arch distance Decrease (Danio rerio embryo [28]): 7.71 µM
5 | CCCNCC(O)COc1ccccc1C(=O)CCc1ccccc1 (stereo unspecified) [Propafenone] | 7.65 | – | – | – | 13.3 | – | – | – | – | 6.61 | 6.08 | 6.36 | – | – | – | 4.31 | 4.78 | – | 16.8 | 2.29 | EC50 Pigmentation decrease (Danio rerio embryo [3]; exposure time: 2 dpf): 62.3 µM; EC10 Pigmentation increase (Danio rerio embryo [29]): 23.1 µM; EC10 Head size Decrease (Danio rerio embryo [4]; exposure time: 4 dpf): 13.4 µM; EC10 LMR ligth increase (Danio rerio embryo [30]): 16.4 µM; EC20 Pigmentation decrease (Danio rerio embryo [10]; exposure time: 2 dpf): 49.3 µM; EC20 Pigmentation increase (Danio rerio embryo [31]): 26.5 µM; EC10 Pigmentation decrease (Danio rerio embryo [11]; exposure time: 2 dpf): 43 µM; EC50 Head size Decrease (Danio rerio embryo [14]; exposure time: 4 dpf): 31 µM; EC20 Head size Decrease (Danio rerio embryo [17]; exposure time: 4 dpf): 18.3 µM; EC20 LMR ligth increase (Danio rerio embryo [32]): 17.3 µM; EC50 Heart rate (Danio rerio embryo [18]; exposure time: 2 dpf): 52.1 µM; EC10 Heart rate (Danio rerio embryo [19]; exposure time: 2 dpf): 1 µM
6 | CC(C)(C)C(O)C(Oc1ccc(Cl)cc1)n1cncn1 (stereo unspecified) [Triadimenol] | 20.9 | 138 | 81.1 | 132 | 135 | 152 | 94.5 | 200 | 108 | 20.1 | 19.6 | 118 | 177 | 159 | 90.2 | 23.2 | 96.8 | 147 | 194 | 64.4 | EC50 Pigmentation decrease (Danio rerio embryo [3]; exposure time: 2 dpf): 152 µM; EC10 LMR ligth increase (Danio rerio embryo [30]): 8.63 µM; EC50 Mandibular arch distance Decrease (Danio rerio embryo [25]): 169 µM; EC20 Pigmentation decrease (Danio rerio embryo [10]; exposure time: 2 dpf): 98.2 µM; EC10 Mandibular arch distance Decrease (Danio rerio embryo [26]): 116 µM; EC10 Pigmentation decrease (Danio rerio embryo [11]; exposure time: 2 dpf): 76.2 µM; EC20 LMR ligth increase (Danio rerio embryo [32]): 17.3 µM; EC50 Heart rate (Danio rerio embryo [18]; exposure time: 2 dpf): 56.8 µM; EC10 Heart rate (Danio rerio embryo [19]; exposure time: 2 dpf): 13.7 µM; EC20 Head trunk angle Decrease (Danio rerio embryo [20]): 113 µM; EC20 Mandibular arch distance Decrease (Danio rerio embryo [28]): 133 µM
